How the values were obtained:
Fmr1 KO mice = assay: Novel object recognition task in Fragile X model; assay type: in vivo, mouse
Procedure: Fmr1 KO mice and wild type mice were obtained and housed four per cage in a temperature of 21° C.±1° C. and humidity of 55%±10% controlled environment. Food and water were available ad libitum. All experiments were performed during the light phase of a 12 hour light/dark cycle (08:00 to 20:00). Animals were handled for one week before the start of experiments. All behavioural tests were performed by researchers blind to the different experimental groups.
On day one mice were habituated for 10 minutes to the empty V-maze in which the task was to be performed. On the second day the mice went back to the maze for 10 minutes which contained two identical objects at the end of each corridor in the V-maze.
The following day the mice were placed again in the same maze for a further 10 minutes but one of the familiar objects was replaced for a novel object. The total time spent exploring the novel and familiar object was recorded. A discrimination index was calculated as the difference between the time spent exploring the novel and familiar object divided by the total time exploring the two objects. A high discrimination index (0.3-0.5) is considered to reflect memory retention for the familiar object.
Adult mice (10-15 weeks old) were treated either acutely with one dose of CBDV on […] or were treated once daily with CBDV for 7 consecutive days. Mice were evaluated in the novel object recognition task after the first and sixth day of CBDV administration. Doses of CBDV used were 2, 10, 20, 100 and 200 mg/kg.

MeCP2 KO mice = assay: Novel Object Recognition test, short- and long-term memory, Rett syndrome model; assay type: in vivo, mouse
Procedure: Furthermore, the efficacy of CBDV in reverting/attenuating the short- and long-term memory deficits present in these mice was evaluated. The Novel Object Recognition (NOR) test was performed before the starting of the treatment Post Natal Day 28 (PND 28), at PND 41 when the first motor symptoms appear and at PND 56 and 66 when the disease is fully manifested.
At PND 28, 41, 56 and 66 the effect of CBDV on short- and long-term memory deficits was investigated through the Novel Object Recognition (NOR) test.
The experimental apparatus used for the Novel Object Recognition test was an open-field box (43×43×32 cm) made of Plexiglas, placed in a dimly illuminated room. Animals performed each test individually.
Briefly, each animal was placed in the arena and allowed to explore two identical previously unseen objects for 10 minutes (familiarization phase). After an inter-trial interval of 30 minutes and 24 hours one of the two familiar objects was replaced by a novel, previously unseen object and mice were returned to the arena for the 10-minute test phase.
During the test phase the time spent exploring the familiar object (Ef) and the new object (En) was recorded separately by two observers blind to the groups and the discrimination index was calculated as follows: [(En−Ef)/(En+Ef)]×100.

VPA-exposed rats = assay: Sociability and preference for social novelty, 3-chamber apparatus, prenatal VPA model; assay type: in vivo, rat
Procedure: Pregnant Sprague-Dawley rats (Charles River, Calco, Italy), received a single intraperitoneal injection of 500 mg/kg sodium valproate on the 12.5 day after conception, and control females were injected with physiological saline at the same time. Sodium valproate (Sigma Aldrich, Milan, IT) was dissolved in saline at a concentration of 250 mg/ml.
CBDV was dissolved in ethanol, cremophor and saline (1:1:18). Symptomatic treatment with CBDV at doses of 0.2, 2, 20, and 100 mg/kg/day i.p. was performed starting from PND 34 (early adolescence) till 56 (early adulthood), both in male and female offspring of dams injected with VPA 500 mg/kg (or vehicle) on day 12.5 after conception. At PND 56, a series of behavioural tests was performed in order to assess the effect of chronic CBDV on sociability, social novelty, short-term memory, locomotion and stereotyped/repetitive behaviours.
Sociability and preference for social novelty: These behaviours were investigated in a 3-chamber apparatus which allows for the measurement of social approach and social preference. In brief, animals were placed into a novel arena (80 cm×31.5 cm) composed of three communicating chambers separated by Perspex walls with central openings allowing access to all chambers for 5 min.
Following this acclimatisation period, animals were briefly confined to the central chamber while an unfamiliar rat confined in a small wire cage was placed in one of the outer chambers. An identical empty wire cage was placed in the other chamber. The unfamiliar rat was randomly assigned to either the right or left chamber of the arena. The test animal was then allowed to explore the arena/chambers for a further 5 min. Time spent engaging in investigatory behaviour with the rat was evaluated with the aid of Anymaze program (Ugo Basile, Italy) in order to examine social approach.
To investigate the preference for social novelty, a novel unfamiliar rat was then placed in the empty cage and the test animal was then allowed to explore the arena/chambers for a further 5 min. Time spent engaging in investigatory behaviour with the novel unfamiliar rat was evaluated with the aid of Anymaze program (Ugo Basile, Italy) in order to examine preference for social novelty.

Question: C=C(C)[C@@H]1CCC(C)=C[C@H]1c1c(O)cc(CCC)cc1O [CBDV, Cannabidivarin] was tested. Which “discrimination index (FIG. 3A)” value (Fmr1 KO mice) did it give?
Answer: The value was “no effect”.

Question: What about the “increase of discrimination index over vehicle treated mice (FIG. 3A)” value (Fmr1 KO mice; acute treatment, 2 mg/kg, knockout mice) of the same compound?
Answer: The value was “not significant”.

Question: And the “discrimination index vs vehicle treated knockout mice (FIG. 3B)” value (Fmr1 KO mice; chronic treatment once daily for 7 days, 20 and 100 mg/kg, knockout mice)?
Answer: The value was “statistically significant increase”.

Question: And the “long-term memory in the NOR test (FIG. 10)” value (MeCP2 KO mice; 2, 20 and 200 mg/kg, 24 hours inter-trial interval, KO mice)?
Answer: The value was “significantly counteract the cognitive impairment”.

Question: And the “short-term memory in the NOR test (FIG. 9)” value (MeCP2 KO mice; 2, 20 and 200 mg/kg, each time point (PND 41, 56, 66), 30 min inter-trial interval, KO mice)?
Answer: Its value is “significantly reverted the cognitive impairment”.

Question: What about the “long-term recognition memory in the NOR test (FIG. 10)” value (MeCP2 KO mice; WT littermates) of the same compound?
Answer: The value was “without affecting recognition memory”.

Question: And the “short-term recognition memory in the NOR test (FIG. 9)” value (MeCP2 KO mice; WT littermates)?
Answer: Its value is “without affecting recognition memory”.

Question: What about the “restoration of social novelty preference (FIG. 1A)” value (VPA-exposed rats; CBDV 20 mg/kg/day i.p. PND 34-56, VPA offspring, p<0.001 in males, p<0.01 in females) of the same compound?
Answer: Its value is “statistically significant effect”.

Question: And the “reduction of preference index compared to controls” value (VPA-exposed rats; VPA-CBDV animals, VPA alone about 48%)?
Answer: Its value is “about 13%”.

Question: And the “impairment in sociability (FIG. 1B)” value (VPA-exposed rats; all doses (0.2, 2, 20, 100 mg/kg/day i.p.), VPA rats)?
Answer: The value was “significantly reduced the impairment in sociability”.

Question: And the “deficit in social preference (FIG. 1C), time exploring novel vs familiar rat” value (VPA-exposed rats; doses of 20 mg/kg and 100 mg/kg, VPA rats)?
Answer: The value was “reversed the deficit in social preference”.

— patent US11752111B2, “Use of cannabidivarin in the treatment of autism spectrum disorder, associated disorders and schizophrenia” (GW Research Limited, priority 2016, dated 2023)
